Tested on: MDA-MB-468 spheroids with HUVEC/MSC, viability
Test: Anticancer human tumor MDA-MB-468 cell line growth inhibition [PI3K];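 further: spheroids exposed to agents for seven days before readout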;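 on viability, T/C: 100% = DMSO vehicle control viability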
Details: for IC50: curve of first compound; for viability, T/C: stronger effect = lower value
Description: Combinatorial screen of targeted agents with the PI3K inhibitors inavolisib, alpelisib, duvelisib, and copanlisib in multi-cell type tumor spheroids
A high-throughput screen of multi-cell type tumor spheroids was designed to identify active combinations of targeted small molecules and PI3K pathway inhibitors. Complex spheroids include a stromal component modeled by human endothelial cells (HUVEC) and fibroblasts modeled by human mesenchymal stem cells (MSCs). The concentration ranges selected for each drug and investigational agent were based upon clinically achievable concentrations if the clinical Cmax of the agent was known.
Compounds. The drugs and investigational agents: inavolisib (NSC800729), alpelisib (NSC765974), duvelisib (NSC772469), copanlisib (NSC816437), ipatasertib (NSC767898), afuresertib (NSC778305), talazoparib (NSC767125), sapanisertib (NSC764658), selumetinib (NSC741078), tovorafenib (DAY101, NSC766906), vemurafenib (NSC761431), ravoxertinib (NSC781343), sotorasib (NSC818433), MRTX1133 (NSC 836407), abemaciclib (NSC 768073), palbociclib (NSC758247), venetoclax (NSC 766270), SY5609 (NSC837396), enzalutamide (NSC755605), and darolutamide (NSC825331), were obtained from the National Cancer Institute (NCI) Developmental Therapeutics Program Chemical Repository. The FDA-approved anticancer drug set is available from the NCI Developmental Therapeutics Program. […] The stock solutions were prepared in dimethyl sulfoxide (DMSO, Sigma-Aldrich, St. Louis, MO, cat. D2650) at 800-fold the tested concentration and stored at -70 degrees C prior to their use. All drugs and investigational agents were tested over a range starting from a high concentration at or near the clinical Cmax and decreasing in half-log increments. If the clinical Cmax for an agent had not been determined, the highest concentration tested was 10 microM.
Cell Culture. All cells were maintained in an incubator at 37 degrees C and 5% CO2 with 95% humidity. The PDC lines were cultured according to standard operating procedures established by the NCI PDMR (https://pdmr.cancer.gov/sops/default.htm). All PDCs were thawed and cultured in Matrigel-coated flasks prepared with a working solution of 1X Ham's F-12 nutrient mix, without supplementation (Invitrogen, Waltham, MA, cat. 11765054), 100 U/mL penicillin-streptomycin (Invitrogen, cat. 15140122), and 2.5% Matrigel (Corning Inc., Corning, NY, cat. 354248) for the first three passages. The 354836-022-R-J1-PDC, 475296-252-R-J1-PDC, and 997726-040-R-J2-PDC lines were cultured in 6A media, which includes advanced DMEM/F-12 (Thermo Fisher Scientific, cat. 12634028), 10 mM HEPES (Thermo Fisher Scientific, cat. 15630080), 1X GlutaMAX supplement (Thermo Fisher Scientific, cat. 35050061), 0.1 mg/mL primocin (InvivoGen, San Diego, CA, cat. ant-pm-2), 10% defined fetal bovine serum, heat inactivated (HyClone Laboratories Inc., Logan, UT, cat. SH30070.03HI), 50% L-WRN conditioned media (ATCC, cat. CRL-3276), 1.25 mM N-Acetyl-L-cysteine (Sigma-Aldrich, cat. A9165), 10 mM nicotinamide (Sigma-Aldrich, cat. N0636), 1X B-27 supplement (Thermo Fisher Scientific, cat. 17504044), 1X N-2 supplement (Thermo Fisher Scientific, cat. 17502048), and 10 microM Y-27632 dihydrochloride (Tocris Bioscience, Bristol, United Kingdom, cat. 1254). The 624824-186-R-J2-PDC line was cultured in 6C/Colon 1B media, which includes all 6A media components plus 50 ng/mL human EGF recombinant protein (Thermo Fisher Scientific, cat. PHG0311). […]

[1] = second compound 0.0316 µM, first compound 0.0316 µM
[2] = second compound 0.0316 µM, first compound 0.1 µM
[3] = second compound 0.1 µM, first compound 0.0316 µM
[4] = second compound 0.1 µM, first compound 0.1 µM
[5] = second compound 0.316 µM, first compound 0.0316 µM
[6] = second compound 0.316 µM, first compound 0.1 µM
[7] = second compound 1 µM, first compound 0.0316 µM
[8] = second compound 1 µM, first compound 0.1 µM

Structure (SMILES): CC(C)n1nc(-c2ccc3oc(N)nc3c2)c2c(N)ncnc21 + COc1c(OCCCN2CCOCC2)ccc2c3n(c(=NC(=O)c4cnc(N)nc4)nc12)CCN3
- IC50 (second compound 0.00316 µM): 34.2 nM
- IC50 (second compound 0.01 µM): 41.7 nM
- IC50 (second compound 0.0316 µM): 32 nM
- IC50 (second compound 0.1 µM): 10.4 nM
- IC50 (second compound 0.316 µM): < 0.316 nM
- IC50 (second compound 1 µM): < 0.316 nM
- viability, T/C (second compound 0.00316 µM, first compound 0.000316 µM): 81.1%
- viability, T/C (second compound 0.00316 µM, first compound 0.001 µM): 87%
- viability, T/C (second compound 0.00316 µM, first compound 0.00316 µM): 95.5%
- viability, T/C (second compound 0.00316 µM, first compound 0.01 µM): 88.3%
- viability, T/C (second compound 0.00316 µM, first compound 0.0316 µM): 52.3%
- viability, T/C (second compound 0.00316 µM, first compound 0.1 µM): 18.8%
- viability, T/C (second compound 0.01 µM, first compound 0.000316 µM): 77.2%
- viability, T/C (second compound 0.01 µM, first compound 0.001 µM): 83.5%
- viability, T/C (second compound 0.01 µM, first compound 0.00316 µM): 87.7%
- viability, T/C (second compound 0.01 µM, first compound 0.01 µM): 81.1%
- viability, T/C (second compound 0.01 µM, first compound 0.0316 µM): 61.1%
- viability, T/C (second compound 0.01 µM, first compound 0.1 µM): 14.9%
- viability, T/C (second compound 0.0316 µM, first compound 0.000316 µM): 75.6%
- viability, T/C (second compound 0.0316 µM, first compound 0.001 µM): 84.4%
- viability, T/C (second compound 0.0316 µM, first compound 0.00316 µM): 80.9%
- viability, T/C (second compound 0.0316 µM, first compound 0.01 µM): 68%
- viability, T/C [1]: 51.2%
- viability, T/C [2]: 11.6%
- viability, T/C (second compound 0.1 µM, first compound 0.000316 µM): 49.8%
- viability, T/C (second compound 0.1 µM, first compound 0.001 µM): 63.6%
- viability, T/C (second compound 0.1 µM, first compound 0.00316 µM): 53.7%
- viability, T/C (second compound 0.1 µM, first compound 0.01 µM): 49.9%
- viability, T/C [3]: 36%
- viability, T/C [4]: 7.66%
- viability, T/C (second compound 0.316 µM, first compound 0.000316 µM): 28.2%
- viability, T/C (second compound 0.316 µM, first compound 0.001 µM): 25.8%
- viability, T/C (second compound 0.316 µM, first compound 0.00316 µM): 28.1%
- viability, T/C (second compound 0.316 µM, first compound 0.01 µM): 24.9%
- viability, T/C [5]: 15.4%
- viability, T/C [6]: 3.12%
- viability, T/C (second compound 1 µM, first compound 0.000316 µM): 3.84%
- viability, T/C (second compound 1 µM, first compound 0.001 µM): 3.57%
- viability, T/C (second compound 1 µM, first compound 0.00316 µM): 2.98%
- viability, T/C (second compound 1 µM, first compound 0.01 µM): 3%
- viability, T/C [7]: 1.87%
- viability, T/C [8]: 0.59%

Structure (SMILES): CCCS(=O)(=O)Nc1ccc(F)c(C(=O)c2c[nH]c3ncc(-c4ccc(Cl)cc4)cc23)c1F + CC(Nc1ncnc2nc[nH]c12)c1cc2cccc(Cl)c2c(=O)n1-c1ccccc1
- IC50 (second compound 0.0316 µM): 4450 nM
- IC50 (second compound 0.1 µM): 3910 nM
- IC50 (second compound 0.316 µM): 3740 nM
- IC50 (second compound 1 µM): 3490 nM
- IC50 (second compound 3.16 µM): 2530 nM
- IC50 (second compound 10 µM): < 31.6 nM
- viability, T/C [1]: 96.6%
- viability, T/C [2]: 86.8%
- viability, T/C (second compound 0.0316 µM, first compound 0.316 µM): 84.3%
- viability, T/C (second compound 0.0316 µM, first compound 1 µM): 83.2%
- viability, T/C (second compound 0.0316 µM, first compound 3.16 µM): 65.3%
- viability, T/C (second compound 0.0316 µM, first compound 10 µM): 15.6%
- viability, T/C [3]: 92.4%
- viability, T/C [4]: 90.9%
- viability, T/C (second compound 0.1 µM, first compound 0.316 µM): 76.3%
- viability, T/C (second compound 0.1 µM, first compound 1 µM): 82.2%
- viability, T/C (second compound 0.1 µM, first compound 3.16 µM): 58.1%
- viability, T/C (second compound 0.1 µM, first compound 10 µM): 13.4%
- viability, T/C [5]: 83.2%
- viability, T/C [6]: 89.2%
- viability, T/C (second compound 0.316 µM, first compound 0.316 µM): 78.3%
- viability, T/C (second compound 0.316 µM, first compound 1 µM): 73.6%
- viability, T/C (second compound 0.316 µM, first compound 3.16 µM): 57.2%
- viability, T/C (second compound 0.316 µM, first compound 10 µM): 14%
- viability, T/C [7]: 61.7%
- viability, T/C [8]: 66.1%
- viability, T/C (second compound 1 µM, first compound 0.316 µM): 69%
- viability, T/C (second compound 1 µM, first compound 1 µM): 68.3%
- viability, T/C (second compound 1 µM, first compound 3.16 µM): 53.6%
- viability, T/C (second compound 1 µM, first compound 10 µM): 11%
- viability, T/C (second compound 3.16 µM, first compound 0.0316 µM): 53.6%
- viability, T/C (second compound 3.16 µM, first compound 0.1 µM): 64.3%
- viability, T/C (second compound 3.16 µM, first compound 0.316 µM): 49.3%
- viability, T/C (second compound 3.16 µM, first compound 1 µM): 57.7%
- viability, T/C (second compound 3.16 µM, first compound 3.16 µM): 48.4%
- viability, T/C (second compound 3.16 µM, first compound 10 µM): 11.2%
- viability, T/C (second compound 10 µM, first compound 0.0316 µM): 40.3%
- viability, T/C (second compound 10 µM, first compound 0.1 µM): 39.3%
- viability, T/C (second compound 10 µM, first compound 0.316 µM): 40.6%
- viability, T/C (second compound 10 µM, first compound 1 µM): 42.9%
- viability, T/C (second compound 10 µM, first compound 3.16 µM): 41.1%
- viability, T/C (second compound 10 µM, first compound 10 µM): 8.78%
